Data from ChEMBL document CHEMBL4376871, “Synthesis and anti-cancer activity studies of dammarane-type triterpenoid derivatives” (Eur J Med Chem, 2020).
pIC50: −log10 of the molar value. Activity calls are given as the source filed them. The rule behind the calls is not given here.

Experiments:
[1] = test system: MCF7; assay: Antiproliferative activity against human MCF7 cells incubated for 48 hrs and measured after 4 hrs by MTT assay; format: functional, cell-based
[2] = test system: A549; assay: Antiproliferative activity against human A549 cells incubated for 48 hrs and measured after 4 hrs by MTT assay; format: functional, cell-based
[3] = Cytotoxicity against human IOSE-144 cells incubated for 48 hrs and measured after 4 hrs by MTT assay; format: cell-based
[4] = test system: MGC-803; assay: Antiproliferative activity against human MGC803 cells incubated for 48 hrs and measured after 4 hrs by MTT assay; format: functional, cell-based
[5] = test system: SGC-7901; assay: Antiproliferative activity against human SGC7901 cells incubated for 48 hrs and measured after 4 hrs by MTT assay; format: functional, cell-based
[6] = test system: PC-3; assay: Antiproliferative activity against human PC3 cells incubated for 48 hrs and measured after 4 hrs by MTT assay; format: functional, cell-based
[7] = test system: SGC-7901; assay: Potency index, ratio of IC50 for AD-2 to IC50 for test compound for antiproliferative activity against human SGC7901 incubated for 48 hrs and measured after 4 hrs by MTT assay; format: functional
[8] = test system: MGC-803; assay: Potency index, ratio of IC50 for AD-2 to IC50 for test compound for antiproliferative activity against human MGC803 incubated for 48 hrs and measured after 4 hrs by MTT assay; format: functional
[9] = test system: A549; assay: Potency index, ratio of IC50 for AD-2 to IC50 for test compound for antiproliferative activity against human A549 incubated for 48 hrs and measured after 4 hrs by MTT assay; format: functional
[10] = test system: PC-3; assay: Potency index, ratio of IC50 for AD-2 to IC50 for test compound for antiproliferative activity against human PC3 incubated for 48 hrs and measured after 4 hrs by MTT assay; format: functional
[11] = test system: MCF7; assay: Potency index, ratio of IC50 for AD-2 to IC50 for test compound for antiproliferative activity against human MCF7 incubated for 48 hrs and measured after 4 hrs by MTT assay; format: functional
[12] = test system: A549; assay: Induction of apoptosis in human A549 cells assessed as appearance of fragmented apoptotic bodies at 10 to 20 uM measured after 12 hrs by DAPI staining based fluorescence microscopic analysis; format: functional, cell-based
[13] = test system: A549; assay: Induction of apoptosis in human A549 cells assessed as nuclear condensation at 10 to 20 uM measured after 12 hrs by DAPI staining based fluorescence microscopic analysis; format: functional, cell-based
[14] = test system: A549; assay: Induction of apoptosis in human A549 cells assessed as nuclear shrinkage at 10 to 20 uM measured after 12 hrs by DAPI staining based fluorescence microscopic analysis; format: functional, cell-based

| pIC50 [1] | pIC50 [2] | pIC50 [4] | pIC50 [5] | pIC50 [6] | SMILES | pIC50 [3] | Ratio IC50 [7] | Ratio IC50 [8] | Ratio IC50 [9] | Ratio IC50 [10] | Ratio IC50 [11] | Activity [12] | Activity [13] | Activity [14] |
| --- | --- | --- | --- | --- | --- | --- | --- | --- | --- | --- | --- | --- | --- | --- |
| < 4.00 | 4.41 | 4.58 | < 4.00 | 4.78 | CC(C)(O)CCC[C@@](C)(O)[C@H]1CC[C@]2(C)[C@@H]1[C@H](O)C[C@@H]1[C@@]3(C)C/C(=C\c4ccc(Br)cc4)[C@H](O)C(C)(C)[C@@H]3CC[C@]12C | < 4.00 | – | – | – | – | – | – | – | – |
| 4.88 | 4.67 | 4.90 | 4.52 | 4.61 | CC(C)(O)CCC[C@@](C)(O)[C@H]1CC[C@]2(C)[C@@H]1[C@H](O)C[C@@H]1[C@@]3(C)C/C(=C\c4ccc(F)cc4F)[C@H](O)C(C)(C)[C@@H]3CC[C@]12C | < 4.00 | – | – | – | – | – | – | – | – |
| 5.08 | 4.90 | 5.03 | 4.95 | 4.88 | CC(C)(O)CCC[C@@](C)(O)[C@H]1CC[C@]2(C)[C@@H]1[C@H](O)C[C@@H]1[C@@]3(C)C/C(=C\c4ccc(F)cc4F)C(=O)C(C)(C)[C@@H]3CC[C@]12C | < 4.00 | 3 - 8 | 3 - 8 | 3 - 8 | 3 - 8 | 3 - 8 | – | – | – |
| 4.57 | 4.65 | 4.65 | 4.65 | 4.63 | CC(C)(O)CCC[C@@](C)(O)[C@H]1CC[C@]2(C)[C@@H]1[C@H](O)C[C@@H]1[C@@]3(C)CC[C@H](OC(=O)C4CCCN(C(=O)OC(C)(C)C)C4)C(C)(C)[C@@H]3CC[C@]12C (stereo partly specified) | < 4.00 | – | – | – | – | – | – | – | – |
| 4.81 | 4.31 | 4.58 | 4.54 | 4.43 | CC(C)(O)CCC[C@@](C)(O)[C@H]1CC[C@]2(C)[C@@H]1[C@H](O)C[C@@H]1[C@@]3(C)C/C(=C\c4ccc(C(F)(F)F)cc4)C(=O)C(C)(C)[C@@H]3CC[C@]12C | < 4.00 | – | – | – | – | – | – | – | – |
| 4.83 | 4.26 | 4.88 | 4.50 | 4.31 | CC(C)(O)CCC[C@@](C)(O)[C@H]1CC[C@]2(C)[C@@H]1[C@H](O)C[C@@H]1[C@@]3(C)C/C(=C\c4cccc(F)c4)C(=O)C(C)(C)[C@@H]3CC[C@]12C | < 4.00 | – | – | – | – | – | – | – | – |
| 4.90 | 4.78 | 4.95 | 4.75 | 4.85 | CC(C)(O)CCC[C@@](C)(O)[C@H]1CC[C@]2(C)[C@@H]1[C@H](O)C[C@@H]1[C@@]3(C)C/C(=C\c4cccc([N+](=O)[O-])c4)C(=O)C(C)(C)[C@@H]3CC[C@]12C | < 4.00 | – | – | – | – | – | – | – | – |
| 4.88 | 5.11 | 4.86 | 4.27 | 4.47 | CC(C)(O)CCC[C@@](C)(O)[C@H]1CC[C@]2(C)[C@@H]1[C@H](O)C[C@@H]1[C@@]3(C)CC[C@H](N)C(C)(C)[C@@H]3CC[C@]12C | < 4.00 | – | – | – | – | – | – | – | – |
| 4.31 | 4.47 | 4.63 | 4.33 | 4.24 | CC(C)(O)CCC[C@@](C)(O)[C@H]1CC[C@]2(C)[C@@H]1[C@H](O)C[C@@H]1[C@@]3(C)C/C(=C\c4ccc([N+](=O)[O-])cc4)[C@H](O)C(C)(C)[C@@H]3CC[C@]12C | < 4.00 | – | – | – | – | – | – | – | – |
| 4.96 | 4.97 | 4.65 | 4.74 | 4.59 | CC(C)(O)CCC[C@@](C)(O)[C@H]1CC[C@]2(C)[C@@H]1[C@H](O)C[C@@H]1[C@@]3(C)CC[C@H](OC(=O)C4CCN(C(=O)OC(C)(C)C)CC4)C(C)(C)[C@@H]3CC[C@]12C | < 4.00 | – | – | – | – | – | – | – | – |
| 4.60 | 4.69 | 4.59 | 4.49 | 4.47 | CC(C)(O)CCC[C@@](C)(O)[C@H]1CC[C@]2(C)[C@@H]1[C@H](O)C[C@@H]1[C@@]3(C)CC[C@H](NC(=O)C4CCNCC4)C(C)(C)[C@@H]3CC[C@]12C | < 4.00 | – | – | – | – | – | – | – | – |
| 4.91 | 4.46 | 4.87 | 4.69 | 4.85 | CC(C)(O)CCC[C@@](C)(O)[C@H]1CC[C@]2(C)[C@@H]1[C@H](O)C[C@@H]1[C@@]3(C)C/C(=C\c4cccc(Br)c4)C(=O)C(C)(C)[C@@H]3CC[C@]12C | < 4.00 | – | – | – | – | – | – | – | – |
| < 4.00 | 4.34 | < 4.00 | < 4.00 | < 4.00 | CC(C)(O)CCC[C@@](C)(O)[C@H]1CC[C@]2(C)[C@@H]1[C@H](O)C[C@@H]1[C@@]3(C)C/C(=C\c4ccc(C(F)(F)F)cc4)[C@H](O)C(C)(C)[C@@H]3CC[C@]12C | < 4.00 | – | – | – | – | – | – | – | – |
| < 4.00 | < 4.00 | 4.73 | < 4.00 | < 4.00 | CC(C)(O)CCC[C@@](C)(O)[C@H]1CC[C@]2(C)[C@@H]1[C@H](O)C[C@@H]1[C@@]3(C)C/C(=C\c4cccc(Br)c4)[C@H](O)C(C)(C)[C@@H]3CC[C@]12C | < 4.00 | – | – | – | – | – | – | – | – |
| 4.86 | 5.26 | 4.90 | 4.92 | 4.88 | CC(C)(O)CCC[C@@](C)(O)[C@H]1CC[C@]2(C)[C@@H]1[C@H](O)C[C@@H]1[C@@]3(C)CC[C@H](OC(=O)C4CCCNC4)C(C)(C)[C@@H]3CC[C@]12C (stereo partly specified) | < 4.00 | – | – | – | – | – | – | – | – |
| < 4.00 | < 4.00 | 4.25 | < 4.00 | < 4.00 | CC(C)(O)CCC[C@@](C)(O)[C@H]1CC[C@]2(C)[C@@H]1[C@H](O)C[C@@H]1[C@@]3(C)C/C(=C\c4cccc(F)c4)[C@H](O)C(C)(C)[C@@H]3CC[C@]12C | < 4.00 | – | – | – | – | – | – | – | – |
| 5.07 | 4.64 | 4.86 | 4.67 | 4.78 | CC(C)(O)CCC[C@@](C)(O)[C@H]1CC[C@]2(C)[C@@H]1[C@H](O)C[C@@H]1[C@@]3(C)C/C(=C\c4ccc(Br)cc4)C(=O)C(C)(C)[C@@H]3CC[C@]12C | < 4.00 | – | – | – | – | – | – | – | – |
| 4.05 | 4.93 | 4.94 | 4.72 | 4.75 | CC(C)(O)CCC[C@@](C)(O)[C@H]1CC[C@]2(C)[C@@H]1[C@H](O)C[C@@H]1[C@@]3(C)CC[C@H](NC(=O)C4CCN(C(=O)OC(C)(C)C)CC4)C(C)(C)[C@@H]3CC[C@]12C | < 4.00 | – | – | – | – | – | – | – | – |
| 4.65 | 4.71 | 4.65 | 4.55 | 4.51 | CC(C)(O)CCC[C@@](C)(O)[C@H]1CC[C@]2(C)[C@@H]1[C@H](O)C[C@@H]1[C@@]3(C)C/C(=C\c4ccc([N+](=O)[O-])cc4)C(=O)C(C)(C)[C@@H]3CC[C@]12C | < 4.00 | – | – | – | – | – | – | – | – |
| < 4.00 | 4.35 | < 4.00 | < 4.00 | 4.12 | CC(C)(O)CCC[C@@](C)(O)[C@H]1CC[C@]2(C)[C@@H]1[C@H](O)C[C@@H]1[C@@]3(C)C/C(=C\c4cccc([N+](=O)[O-])c4)[C@H](O)C(C)(C)[C@@H]3CC[C@]12C | < 4.00 | – | – | – | – | – | – | – | – |
| 4.73 | 4.94 | 4.69 | 4.52 | 4.51 | CC(C)(O)CCC[C@@](C)(O)[C@H]1CC[C@]2(C)[C@@H]1[C@H](O)C[C@@H]1[C@@]3(C)CC[C@H](NC(=O)C4CCCNC4)C(C)(C)[C@@H]3CC[C@]12C (stereo partly specified) | < 4.00 | – | – | – | – | – | – | – | – |
| 4.67 | 4.63 | 4.77 | 4.74 | 4.64 | CC(C)(O)CCC[C@@](C)(O)[C@H]1CC[C@]2(C)[C@@H]1[C@H](O)C[C@@H]1[C@@]3(C)CC[C@H](NC(=O)C4CCCN(C(=O)OC(C)(C)C)C4)C(C)(C)[C@@H]3CC[C@]12C (stereo partly specified) | < 4.00 | – | – | – | – | – | – | – | – |

| SMILES | pIC50 [1] | pIC50 [2] | pIC50 [4] | pIC50 [5] | pIC50 [6] | pIC50 [3] | Ratio IC50 [7] | Ratio IC50 [8] | Ratio IC50 [9] | Ratio IC50 [10] | Ratio IC50 [11] | Activity [12] | Activity [13] | Activity [14] |
| --- | --- | --- | --- | --- | --- | --- | --- | --- | --- | --- | --- | --- | --- | --- |
| CC(C)(O)CCC[C@@](C)(O)[C@H]1CC[C@]2(C)[C@@H]1[C@H](O)C[C@@H]1[C@@]3(C)CC[C@H](O)C(C)(C)[C@@H]3CC[C@]12C | 4.54 | 4.64 | 4.16 | 4.47 | 4.34 | < 4.00 | – | – | – | – | – | inactive | inactive | inactive |
